# Source: article PMC3392440 (2012)
# How the values were obtained:
# TlpB [1] = molecular target: TlpB (Helicobacter pylori, UniProt B6JPK4); assay: crystal structure; assay type: binding
# TlpB [2] = molecular target: TlpB (Helicobacter pylori, UniProt B6JPK4, Y137F); assay: colorimetric assay of co-purified urea; assay type: binding
# [3] = molecular target: TlpB periplasmic domain, residues 33-211 (TlpBpp), H. pylori strain SS1 (Helicobacter pylori strain SS1); assay: crystal structure
molecule,measurement,setting,value
CC(N)=O [acetamide],crystal structure (1.40 Å); CD thermal melt,TlpB [1],TlpBpp with acetamide bound is 3UB7
NC(N)=O [urea],% bound urea,TlpB [2],11 % bound urea
"TlpB periplasmic domain, residues 33-211 (TlpBpp), H. pylori strain SS1 (domain or fragment)",stoichiometry N,[3],2
